Patent US10065963B2 (Incyte Corporation, priority 2015, dated 2018)
Counter-ions that a name gives are not always drawn. Like-named read-outs stand apart in the source and are kept apart here.

How the values were obtained:
[1] = test system: Phosphorylated Ribosomal Protein S6 (RPS6) in THP-1 cells; test: THP-1 RPS6 ELISA assay; assay type: cell-based, human; conditions: 10 nM MCP-1, read-out: PI3Kγ_THP1_RPS6_ELISA IC50
[2] = target: PI3Kγ (p110γ) Recombinant Human Protein (Homo sapiens (Human), UniProt P48736); test: PI3K-γ scintillation proximity assay; assay type: biochemical; conditions: 2 μM ATP, 20 μM PIP2
[3] = target: PI3Kδ (p110δ/p85α) Recombinant Human Protein (Homo sapiens (Human), UniProt O00329); test: PI3Kδ scintillation proximity assay; assay type: biochemical; conditions: 2 μM ATP, 20 μM PIP2
[4] = Homo sapiens, THP-1, THP-1 cells

Sequence of PI3Kγ (p110γ) Recombinant Human Protein (P48736 whole entry): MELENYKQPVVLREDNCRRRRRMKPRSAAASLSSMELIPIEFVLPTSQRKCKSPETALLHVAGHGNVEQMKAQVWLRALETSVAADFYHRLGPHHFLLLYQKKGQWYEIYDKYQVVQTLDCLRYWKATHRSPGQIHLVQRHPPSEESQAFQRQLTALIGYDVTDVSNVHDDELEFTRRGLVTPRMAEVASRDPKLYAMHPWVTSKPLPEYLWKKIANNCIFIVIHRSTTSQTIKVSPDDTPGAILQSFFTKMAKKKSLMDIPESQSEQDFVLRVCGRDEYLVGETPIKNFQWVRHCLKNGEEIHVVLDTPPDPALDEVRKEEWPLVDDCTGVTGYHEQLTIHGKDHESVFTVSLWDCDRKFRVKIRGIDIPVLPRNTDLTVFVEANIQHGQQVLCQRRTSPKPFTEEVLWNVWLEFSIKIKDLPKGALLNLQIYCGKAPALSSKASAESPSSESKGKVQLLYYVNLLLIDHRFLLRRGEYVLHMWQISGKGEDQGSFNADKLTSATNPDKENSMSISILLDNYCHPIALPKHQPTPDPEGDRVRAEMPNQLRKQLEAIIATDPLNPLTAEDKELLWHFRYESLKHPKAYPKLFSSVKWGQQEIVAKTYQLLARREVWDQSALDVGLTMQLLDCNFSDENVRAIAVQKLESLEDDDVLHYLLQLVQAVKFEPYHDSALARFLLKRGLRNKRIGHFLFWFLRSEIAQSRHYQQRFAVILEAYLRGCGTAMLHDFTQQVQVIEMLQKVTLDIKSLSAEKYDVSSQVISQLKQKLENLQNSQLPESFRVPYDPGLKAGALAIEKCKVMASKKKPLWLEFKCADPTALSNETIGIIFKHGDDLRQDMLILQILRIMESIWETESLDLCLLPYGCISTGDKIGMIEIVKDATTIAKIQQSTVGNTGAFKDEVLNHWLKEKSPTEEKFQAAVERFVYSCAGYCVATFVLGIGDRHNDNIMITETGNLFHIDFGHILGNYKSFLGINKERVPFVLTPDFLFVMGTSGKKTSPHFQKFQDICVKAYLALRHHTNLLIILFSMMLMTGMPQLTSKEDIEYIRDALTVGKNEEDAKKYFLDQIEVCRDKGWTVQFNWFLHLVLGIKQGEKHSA
Sequence of PI3Kδ (p110δ/p85α) Recombinant Human Protein (O00329 whole entry): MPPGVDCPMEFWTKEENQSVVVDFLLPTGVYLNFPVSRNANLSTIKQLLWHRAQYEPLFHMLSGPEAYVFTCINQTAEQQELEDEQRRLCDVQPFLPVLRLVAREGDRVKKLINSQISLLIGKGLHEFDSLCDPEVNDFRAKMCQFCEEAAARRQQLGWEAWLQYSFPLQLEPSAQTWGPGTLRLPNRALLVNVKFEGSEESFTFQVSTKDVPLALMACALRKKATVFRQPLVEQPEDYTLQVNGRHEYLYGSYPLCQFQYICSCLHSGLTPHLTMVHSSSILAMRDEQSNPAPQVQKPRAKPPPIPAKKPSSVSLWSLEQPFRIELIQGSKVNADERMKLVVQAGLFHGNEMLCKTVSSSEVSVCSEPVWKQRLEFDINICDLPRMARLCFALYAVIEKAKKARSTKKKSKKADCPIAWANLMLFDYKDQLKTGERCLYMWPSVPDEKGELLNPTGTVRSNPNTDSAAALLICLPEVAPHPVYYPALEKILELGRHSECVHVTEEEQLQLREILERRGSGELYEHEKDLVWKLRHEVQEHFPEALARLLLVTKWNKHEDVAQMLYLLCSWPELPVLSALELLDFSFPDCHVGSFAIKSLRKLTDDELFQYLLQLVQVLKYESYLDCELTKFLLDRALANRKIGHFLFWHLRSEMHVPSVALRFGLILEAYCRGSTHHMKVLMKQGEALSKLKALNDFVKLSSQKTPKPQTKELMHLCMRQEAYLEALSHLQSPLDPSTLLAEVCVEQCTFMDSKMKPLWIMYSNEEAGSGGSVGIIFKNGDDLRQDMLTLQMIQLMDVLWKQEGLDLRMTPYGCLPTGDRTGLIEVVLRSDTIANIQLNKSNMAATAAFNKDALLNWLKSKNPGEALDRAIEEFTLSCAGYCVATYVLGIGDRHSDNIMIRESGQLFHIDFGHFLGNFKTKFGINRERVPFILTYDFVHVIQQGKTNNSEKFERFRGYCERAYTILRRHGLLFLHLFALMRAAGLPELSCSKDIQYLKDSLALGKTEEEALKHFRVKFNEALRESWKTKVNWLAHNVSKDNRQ
Sequence of PI3Kδ (p110δ/p85α) Recombinant Human Protein (P27986 whole entry partner): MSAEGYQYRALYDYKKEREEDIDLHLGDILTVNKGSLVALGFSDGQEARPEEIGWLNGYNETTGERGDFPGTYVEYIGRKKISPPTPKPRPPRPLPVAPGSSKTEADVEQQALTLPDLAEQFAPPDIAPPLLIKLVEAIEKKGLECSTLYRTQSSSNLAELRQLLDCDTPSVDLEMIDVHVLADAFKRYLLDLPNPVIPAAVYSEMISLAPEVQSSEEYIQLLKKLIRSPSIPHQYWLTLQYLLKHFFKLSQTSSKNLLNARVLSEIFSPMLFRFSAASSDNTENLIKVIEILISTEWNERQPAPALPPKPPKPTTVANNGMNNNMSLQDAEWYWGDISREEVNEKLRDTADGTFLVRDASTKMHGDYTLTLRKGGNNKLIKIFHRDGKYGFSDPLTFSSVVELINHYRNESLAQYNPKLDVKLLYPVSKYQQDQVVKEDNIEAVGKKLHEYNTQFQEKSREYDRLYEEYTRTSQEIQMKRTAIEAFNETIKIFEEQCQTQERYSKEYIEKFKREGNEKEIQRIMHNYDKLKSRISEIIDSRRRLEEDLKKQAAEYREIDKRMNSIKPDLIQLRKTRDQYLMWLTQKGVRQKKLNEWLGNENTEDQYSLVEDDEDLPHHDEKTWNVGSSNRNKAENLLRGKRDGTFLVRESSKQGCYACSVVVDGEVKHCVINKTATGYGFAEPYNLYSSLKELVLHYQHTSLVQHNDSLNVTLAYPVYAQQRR

In the case of `CC(NC(=O)c1c(N)nn2cccnc12)c1cc(Cl)c2c(Cl)cnn2c1N1CCS(=O)(=O)CC1` (stereo not drawn) [Example 113, 2-Amino-N-{1-[3,4-dichloro-7-(1,1-dioxidothiomorpholin-4-yl)pyrazolo[1,5-a]pyridin-6-yl]ethyl}pyrazolo[1,5-a]pyrimidine-3-carboxamide trifluoroacetate], the IC50 [1, 4] is reported as under 500 nM, the IC50 [2] is reported as under 100 nM and the IC50 [3] is reported as under 100 nM.

In the case of `CC(NC(=O)c1c(N)nn2cccnc12)c1cc(Cl)c2c(Cl)cnn2c1N1CCCS(=O)(=O)CC1` (stereo not drawn) [Example 114, 2-Amino-N-{1-[3,4-dichloro-7-(1,1-dioxido-1,4-thiazepan-4-yl)pyrazolo[1,5-a]pyridin-6-yl]ethyl}pyrazolo[1,5-a]pyrimidine-3-carboxamide trifluoroacetate], the IC50 [1, 4] is reported as under 500 nM, the IC50 [2] is reported as under 100 nM and the IC50 [3] is reported as under 100 nM.

For `CC(NC(=O)c1c(N)nn2cccnc12)c1cc(Cl)c2c(Cl)cnn2c1N1CCNS(=O)(=O)CC1` (stereo not drawn) [Example 115, 2-Amino-N-{1-[3,4-dichloro-7-(1,1-dioxido-1,2,5-thiadiazepan-5-yl)pyrazolo[1,5-a]pyridin-6-yl]ethyl}pyrazolo[1,5-a]pyrimidine-3-carboxamide trifluoroacetate], the IC50 [1, 4] was under 500 nM, the IC50 [2] was under 100 nM and the IC50 [3] was under 100 nM.

Compound `CC(NC(=O)c1c(N)nn2cccnc12)c1cc(Cl)c2c(Cl)cnn2c1N1CCS(=O)(=O)C(C)(C)C1` (stereo not drawn) [Example 116, 2-Amino-N-{1-[3,4-dichloro-7-(2,2-dimethyl-1,1-dioxidothiomorpholin-4-yl)pyrazolo[1,5-a]pyridin-6-yl]ethyl}pyrazolo[1,5-a]pyrimidine-3-carboxamide trifluoroacetate] has an IC50 [1, 4] of under 500 nM, an IC50 [2] of under 100 nM and an IC50 [3] of under 100 nM.

`COc1cncc(-c2c(C(C)NC(=O)c3c(N)nn4cccnc34)cc(Cl)c3cncn23)c1` (stereo not drawn) [Example 134, 2-Amino-N-{1-[8-chloro-5-(5-methoxypyridin-3-yl)imidazo[1,5-d]pyridin-6-yl]ethyl}pyrazolo[1,5-a]pyrimidine-3-carboxamide trifluoroacetate salt] showed an IC50 ([1]; THP-1 cells) of over 1000 nM, an IC50 [2] of under 100 nM and an IC50 [3] of under 500 nM.

In the case of `COC1CCN(c2c(C(C)NC(=O)c3c(N)nn4cccnc34)cc(Cl)c3cncn23)C1` (stereo not drawn) [Example 144, 2-Amino-N-{1-[8-chloro-5-(3-methoxypyrrolidin-1-yl)imidazo[1,5-a]pyridin-6-yl]ethyl}pyrazolo[1,5-a]pyrimidine-3-carboxamide trifluoroacetate salt], the IC50 [1, 4] is reported as under 500 nM, the IC50 [2] is reported as under 100 nM and the IC50 [3] is reported as under 500 nM.

`CC(NC(=O)c1c(N)nn2cccnc12)c1cc(Cl)c2cncn2c1N1CCC(O)C1` (stereo not drawn) [Example 148, 2-Amino-N-{1-[8-chloro-5-(3-hydroxy-pyrrolidin-1-yl)imidazo[1,5-a]pyridin-6-yl]ethyl}pyrazolo [1,5-a]pyrimidine-3-carboxamide trifluoroacetate salt] gave an IC50 [1, 4] of under 500 nM, an IC50 [2] of under 500 nM and an IC50 [3] of under 500 nM.

`CC(NC(=O)c1c(N)nn2cccnc12)c1cc(Cl)c2cncn2c1N1C[C@@H](O)C[C@H](O)C1` (stereo partly drawn) [Example 150, 2-Amino-N-(1-{8-chloro-5-[(3S,5S)-3,5-dihydroxypiperidin1-yl]imidazo[1,5-a]pyridin-6-yl}ethyl)pyrazol[1,5-a]pyrimidine-3-carboxamide trifluoroacetate salt] showed an IC50 ([1]; THP-1 cells) of under 500 nM, an IC50 [2] of under 100 nM and an IC50 [3] of under 100 nM.

`CC(NC(=O)c1c(N)nn2cccnc12)c1cc(Cl)c2cncn2c1N1CCCC(O)C1` (stereo not drawn) [Example 152, 2-Amino-N-(1-{8-chloro-5-[(3)-3-hydroxypiperidin-1-yl]imidazo[1,5-a]pyridin-6-yl}ethyl)pyrazolo[1,5-a]pyrimidine-3-carboxamide trifluoroacetate salt] showed an IC50 ([1]; THP-1 cells) of under 500 nM, an IC50 [2] of under 100 nM and an IC50 [3] of under 100 nM.

With `CC(NC(=O)c1c(N)nn2cccnc12)c1cc(Cl)c2cncn2c1N1CCC(C#N)CC1` (stereo not drawn) [Example 153, 2-Amino-N-{1-[8-chloro-5-(4-cyanopiperidin-1-yl)imidazo[1.5-a]pyridin-6-yl]ethyl}pyrazolo[1,5-a]pyrimidine-3-carboxamide trifluoroacetate salt] the IC50 ([1]; THP-1 cells) was under 500 nM, the IC50 [2] was under 100 nM and the IC50 [3] was under 100 nM.

Work on `CC(NC(=O)c1c(N)nn2cccnc12)c1cc(Cl)c2cncn2c1N1C[C@H](O)C[C@H](O)C1` (stereo partly drawn) [Example 155B, 2-Amino-N-(1-{8-chloro-5-[(3R,5S)-3,5-dihydroxypiperidin-1-yl]imidazo[1,5-a]pyridin-6-yl}ethyl)pyrazolo[1,5-a]pyrimidine-3-carboxamide trifluoroacetate salt] yielded an IC50 [1, 4] of under 500 nM, an IC50 [2] of under 100 nM and an IC50 [3] of under 100 nM.

`CC(NC(=O)c1c(N)nn2cccnc12)c1cc(Cl)c2cncn2c1N1C[C@@H](O)C[C@@H](F)C1` (stereo partly drawn) [Example 156, 2-Ammo-N-(1-{8-chloro-5-[(3R,5S)-3-fluoro-5-hydroxypiperidin-1-yl]imidazo[1,5-a]pyridin-6-yl}ethyl)pyrazolo[1,5-a]pyrimidine-3-carboxamide trifluoroacetate salt] showed an IC50 ([1]; THP-1 cells) of under 1000 nM, an IC50 [2] of under 100 nM and an IC50 [3] of under 2000 nM.

In the case of `CC(NC(=O)c1c(N)nn2cccnc12)c1cc(Cl)c2cncn2c1N1C[C@H](O)C[C@H](C#N)C1` (stereo partly drawn) [Example 157, 2-Amino-N-(1-{8-chloro-5-[(3S,5R)-3-cyano-5-hydroxypiperidin-1-yl]imidazo[1,5-a]pyridin-6-yl}ethyl)pyrazolo[1,5-a]pyrimidine-3-carboxamide trifluoroacetate salt], the IC50 [1, 4] is reported as under 1000 nM, the IC50 [2] is reported as under 100 nM and the IC50 [3] is reported as under 500 nM.

With `CC(NC(=O)c1c(N)nn2cccnc12)c1cc(Cl)c2c(C#N)ncn2c1N1CCS(=O)(=O)C(C)C1` (stereo not drawn) [Example 165, 2-Amino-N-(1-(8-chloro-1-cyano-5-(2-methyl-1,1-dioxidothiomorpholino)imidazo[1,5-a]pyridin-6-yl)ethyl)pyrazolo[1,5-a]pyrimidine-3-carboxamide trifluoroacetate salt] the IC50 [1, 4] was under 500 nM, the IC50 [2] was under 100 nM and the IC50 [3] was under 2000 nM.

`Nc1nn2cccnc2c1C(=O)NCc1cc(Cl)c2cncn2c1N1CCS(=O)(=O)CC1` [Example 166, 2-Amino-N-{[8-chloro-5-(1,1-dioxidothiomorpholin-4-yl)imidazo[1,5-a]pyridin-6-yl]methyl}pyrazolo[1,5-a]pyrimidine-3-carboxamide trifluoroacetate salt] was tested, and the IC50 [1, 4] was under 1000 nM, the IC50 [2] was under 100 nM and the IC50 [3] was under 2000 nM.

`CC1(C)CN(c2c(CNC(=O)c3c(N)nn4cccnc34)cc(Cl)c3cncn23)CCS1(=O)=O` [Example 168, 2-Amino-N-((8-chloro-5-(2,2-dimethyl-1,1-dioxido-thiomorpholino)imidazo[1,5-a]pyridin-6-yl)methyl) pyrazolo[1,5-a] pyrimidine-3-carboxamide trifluoroacetate salt] showed an IC50 ([1]; THP-1 cells) of over 1000 nM, an IC50 [2] of under 100 nM and an IC50 [3] of under 2000 nM.

Work on `CC1(C)CN(c2c(CNC(=O)c3c(N)nn4cccnc34)cc(Cl)c3c(Cl)ncn23)CCS1(=O)=O` [Example 170, 2-Amino-N-((1,8-dichloro-5-(2,2-dimethyl-1,1-dioxidothio-morpholino)imidazo [1,5-a]pyridin-6-yl)methyl) pyrazolo[1,5-a] pyrimidine-3-carboxamide trifluoroacetate salt] yielded an IC50 ([1]; THP-1 cells) of over 1000 nM, an IC50 [2] of under 100 nM and an IC50 [3] of under 2000 nM.

Work on `Nc1nn2cccnc2c1C(=O)NCc1cc(Cl)c2cncn2c1N1CCCC1` [Example 171, 2-Amino-N-((8-chloro-5-(pyrrolidin-1-yl)imidazo[1,5-a]pyridin-6-yl)methyl)pyrazolo[1,5-a]pyrimidine-3-carboxamide trifluoroacetate salt] yielded an IC50 [1, 4] of over 1000 nM, an IC50 [2] of under 100 nM and an IC50 [3] of under 500 nM.

`Nc1nn2cccnc2c1C(=O)NCc1cc(Cl)c2c(Cl)ncn2c1N1CCCC1` [Example 172, 2-Amino-N-((1,8-dichloro-5-(pyrrolidin-1-yl)imidazo[1,5-a]pyridin-6-yl)methyl)pyrazolo[1,5-a]pyrimidine-3-carboxamidetrifluoroacetate salt] gave an IC50 [1, 4] of under 1000 nM, an IC50 [2] of under 100 nM and an IC50 [3] of under 500 nM.

With `N#Cc1ncn2c(N3CCCC3)c(CNC(=O)c3c(N)nn4cccnc34)cc(Cl)c12` [Example 173, 2-Amino-N-((8-chloro-1-cyano-5-(pyrrolidin-1-yl)imidazo[1,5-a]pyridin-6-yl)methyl)pyrazolo[1,5-a]pyrimidine-3-carboxamide trifluoroacetate salt] the IC50 [1, 4] was over 1000 nM, the IC50 [2] was under 500 nM and the IC50 [3] was under 2000 nM.

`CC1CN(c2c(CNC(=O)c3c(N)nn4cccnc34)cc(Cl)c3c(C#N)ncn23)CCS1(=O)=O` (stereo not drawn) [Example 174, 2-Amino-N-((8-chloro-1-cyano-5-(2-methyl-1,1-dioxidothiomorpholino)imidazo[1,5-a]pyridin-6-yl)methyl)pyrazolo[1,5-a]pyrimidine-3-carboxamide trifluoroacetate salt] showed an IC50 [1, 4] of over 1000 nM, an IC50 [2] of under 100 nM and an IC50 [3] of under 2000 nM.

Work on `CCC(NC(=O)c1c(N)nn2cccnc12)c1cc(Cl)c2c(C#N)ncn2c1N1CCS(=O)(=O)C(C)C1` (stereo not drawn) [Example 175, 2-Amino-N-(1-(8-chloro-1-cyano-5-(2-methyl-1,1-dioxidothiomorpholino)imidazo[1,5-a]pyridin-6-yl)propyl)pyrazolo[1,5-a]pyrimidine-3-carboxamide trifluoroacetate salt] yielded an IC50 [1, 4] of under 500 nM, an IC50 [2] of under 100 nM and an IC50 [3] of under 2000 nM.

In the case of `CC1CN(c2c(C(NC(=O)c3c(N)nn4cccnc34)C3CC3)cc(Cl)c3c(C#N)ncn23)CCS1(=O)=O` (stereo not drawn) [Example 176, 2-Amino-N-((8-chloro-1-cyano-5-(2-methyl-1,1-dioxidothio-morpholino)imidazo [1,5-a]pyridin-6-yl)(cyclopropyl)methyl)pyrazolo [1,5-a]pyrimidine-3-carboxamide trifluoroacetate salt], the IC50 [1, 4] is reported as under 500 nM, the IC50 [2] is reported as under 100 nM and the IC50 [3] is reported as under 2000 nM.
